{"source": "ChEMBL document CHEMBL3044916", "about": "“Attract-and-kill: a new strategy for the management of the potato tuber moths Phthorimaea operculella (Zeller) and Symmetrischema tangolias (Gyen) in potato: laboratory experiments towards optimising pheromone and insecticide concentration” (2010)", "key": {"[1]": {"test_system": "Phthorimaea operculella", "test": "Insecticidal activity against Phthorimaea operculella assessed as mortality at 1.25 g/l after 48 hr", "type": "functional"}, "[2]": {"test_system": "Phthorimaea operculella", "test": "Insecticidal activity against Phthorimaea operculella assessed as mortality at 2.5 g/l after 48 hr", "type": "functional"}, "[3]": {"test_system": "Phthorimaea operculella", "test": "Insecticidal activity against Phthorimaea operculella assessed as mortality at 2.5 g/l after 24 hr", "type": "functional"}, "[4]": {"test_system": "Phthorimaea operculella", "test": "Insecticidal activity against Phthorimaea operculella assessed as mortality at 5 g/l after 24 hr", "type": "functional"}, "[5]": {"test_system": "Phthorimaea operculella", "test": "Insecticidal activity against Phthorimaea operculella assessed as mortality at 5 g/l after 48 hr", "type": "functional"}, "[6]": {"test_system": "Symmetrischema tangolias", "test": "Insecticidal activity against Symmetrischema tangolias assessed as mortality at 0.65 g/l after 48 hr", "type": "functional"}, "[7]": {"test_system": "Symmetrischema tangolias", "test": "Insecticidal activity against Symmetrischema tangolias assessed as mortality at 0.65 g/l after 24 hr", "type": "functional"}, "[8]": {"test_system": "Symmetrischema tangolias", "test": "Insecticidal activity against Symmetrischema tangolias assessed as mortality at 1.25 g/l after 48 hr", "type": "functional"}, "[9]": {"test_system": "Symmetrischema tangolias", "test": "Insecticidal activity against Symmetrischema tangolias assessed as mortality at 1.25 g/l after 24 hr", "type": "functional"}, "[10]": {"test_system": "Symmetrischema tangolias", "test": "Insecticidal activity against Symmetrischema tangolias assessed as mortality at 2.5 g/l after 48 hr", "type": "functional"}, "[11]": {"test_system": "Symmetrischema tangolias", "test": "Insecticidal activity against Symmetrischema tangolias assessed as mortality at 2.5 g/l after 24 hr", "type": "functional"}, "[12]": {"test_system": "Symmetrischema tangolias", "test": "Insecticidal activity against Symmetrischema tangolias assessed as mortality at 5 g/l after 48 hr", "type": "functional"}, "[13]": {"test_system": "Symmetrischema tangolias", "test": "Insecticidal activity against Symmetrischema tangolias assessed as mortality at 5 g/l after 24 hr", "type": "functional"}, "[14]": {"test_system": "Phthorimaea operculella", "test": "Insecticidal activity against Phthorimaea operculella assessed as mortality at 0.35 g/l after 48 hr", "type": "functional"}, "[15]": {"test_system": "Phthorimaea operculella", "test": "Insecticidal activity against Phthorimaea operculella assessed as mortality at 0.35 g/l after 24 hr", "type": "functional"}, "[16]": {"test_system": "Phthorimaea operculella", "test": "Insecticidal activity against Phthorimaea operculella assessed as mortality at 0.65 g/l after 48 hr", "type": "functional"}, "[17]": {"test_system": "Phthorimaea operculella", "test": "Insecticidal activity against Phthorimaea operculella assessed as mortality at 0.65 g/l after 24 hr", "type": "functional"}, "[18]": {"test_system": "Phthorimaea operculella", "test": "Insecticidal activity against Phthorimaea operculella assessed as mortality at 1.25 g/l after 24 hr", "type": "functional"}, "[19]": {"test_system": "Symmetrischema tangolias", "test": "Insecticidal activity against Symmetrischema tangolias assessed as mortality at 5 g/l after 8 days by cage bio assay relative to control", "type": "functional", "conditions": "192 h"}, "[20]": {"test_system": "Phthorimaea operculella", "test": "Insecticidal activity against Phthorimaea operculella assessed as mortality at 5 g/l after 6 days by cage bio assay relative to control", "type": "functional", "conditions": "144 h"}, "[21]": {"test_system": "Symmetrischema tangolias", "test": "Insecticidal activity against Symmetrischema tangolias assessed as mortality at 5 g/l after 36 days by cage bio assay relative to control", "type": "functional", "conditions": "864 h"}, "[22]": {"test_system": "Phthorimaea operculella", "test": "Insecticidal activity against Phthorimaea operculella assessed as mortality at 5 g/l after 36 days by cage bio assay relative to control", "type": "functional", "conditions": "864 h"}, "[23]": {"test_system": "Phthorimaea operculella", "test": "Insecticidal activity against Phthorimaea operculella assessed as mortality at 5 g/l after 3 days by cage bio assay relative to control", "type": "functional", "conditions": "72 h"}, "[24]": {"test_system": "Symmetrischema tangolias", "test": "Insecticidal activity against Symmetrischema tangolias assessed as mortality at 5 g/l after 4 days by attract-and-kill assay relative to control", "type": "functional", "conditions": "96 h"}, "[25]": {"test_system": "Symmetrischema tangolias", "test": "Insecticidal activity against Symmetrischema tangolias assessed as mortality at 5 g/l after 24 hr by attract-and-kill assay relative to control", "type": "functional"}, "[26]": {"test_system": "Phthorimaea operculella", "test": "Insecticidal activity against Phthorimaea operculella assessed as mortality at 5 g/l after 24 hr by attract-and-kill assay relative to control", "type": "functional"}, "[27]": {"test_system": "Symmetrischema tangolias", "test": "Insecticidal activity against Symmetrischema tangolias assessed as mortality at 5 g/l after 24 hr by attract-and-kill assay", "type": "functional, organism-based"}, "[28]": {"test_system": "Symmetrischema tangolias", "test": "Insecticidal activity against Symmetrischema tangolias assessed as mortality at 5 g/l after 3 days by cage bio assay relative to control", "type": "functional", "conditions": "72 h"}, "[29]": {"test_system": "Phthorimaea operculella", "test": "Insecticidal activity against Phthorimaea operculella assessed as mortality at 5 g/l after 24 hr by attract-and-kill assay", "type": "functional, organism-based"}, "[30]": {"test_system": "Phthorimaea operculella", "test": "Insecticidal activity against Phthorimaea operculella assessed as mortality at 5 g/l after 4 days by attract-and-kill assay relative to control", "type": "functional", "conditions": "96 h"}, "[31]": {"test_system": "Symmetrischema tangolias", "test": "Insecticidal activity against Symmetrischema tangolias assessed as mortality at 0.35 g/l after 48 hr", "type": "functional"}, "[32]": {"test_system": "Symmetrischema tangolias", "test": "Insecticidal activity against Symmetrischema tangolias assessed as mortality at 0.35 g/l after 24 hr", "type": "functional"}}, "note": "The source made the active and inactive calls. The rule behind the calls is not given here.", "data": [{"smiles": "CC1(C)C(C=C(Cl)Cl)C1C(=O)OC(C#N)c1ccc(F)c(Oc2ccccc2)c1", "note": "(configuration not stated) [CYFLUTHRIN]", "values": [{"measurement": "mortality at 1250 µg/mL", "setting": "[1]", "result": 63.2, "unit": "%"}, {"measurement": "mortality at 2500 µg/mL", "setting": "[2]", "result": 63.2, "unit": "%"}, {"measurement": "mortality at 2500 µg/mL", "setting": "[3]", "result": 47.4, "unit": "%"}, {"measurement": "mortality at 5000 µg/mL", "setting": "[4]", "result": 57.9, "unit": "%"}, {"measurement": "mortality at 5000 µg/mL", "setting": "[5]", "result": 84.2, "unit": "%"}, {"measurement": "mortality at 650 µg/mL", "setting": "[6]", "result": 31.6, "unit": "%"}, {"measurement": "mortality at 650 µg/mL", "setting": "[7]", "result": 26.6, "unit": "%"}, {"measurement": "mortality at 1250 µg/mL", "setting": "[8]", "result": 42.2, "unit": "%"}, {"measurement": "mortality at 1250 µg/mL", "setting": "[9]", "result": 15.6, "unit": "%"}, {"measurement": "mortality at 2500 µg/mL", "setting": "[10]", "result": 68.3, "unit": "%"}, {"measurement": "mortality at 2500 µg/mL", "setting": "[11]", "result": 52.7, "unit": "%"}, {"measurement": "mortality at 5000 µg/mL", "setting": "[12]", "result": 77.7, "unit": "%"}, {"measurement": "mortality at 5000 µg/mL", "setting": "[13]", "result": 59.4, "unit": "%"}, {"measurement": "mortality at 350 µg/mL", "setting": "[14]", "result": 31.6, "unit": "%"}, {"measurement": "mortality at 350 µg/mL", "setting": "[15]", "result": 21.1, "unit": "%"}, {"measurement": "mortality at 650 µg/mL", "setting": "[16]", "result": 47.4, "unit": "%"}, {"measurement": "mortality at 650 µg/mL", "setting": "[17]", "result": 26.3, "unit": "%"}, {"measurement": "mortality at 1250 µg/mL", "setting": "[18]", "result": 38.8, "unit": "%"}, {"measurement": "mortality at 5000 µg/mL", "setting": "[19]", "result": 100, "unit": "%"}, {"measurement": "mortality at 5000 µg/mL", "setting": "[20]", "result": 100, "unit": "%"}, {"measurement": "mortality at 5000 µg/mL", "setting": "[21]", "result": 53, "unit": "%"}, {"measurement": "mortality at 5000 µg/mL", "setting": "[22]", "result": 44, "unit": "%"}, {"measurement": "mortality at 5000 µg/mL", "setting": "[23]", "result": 100, "unit": "%"}, {"measurement": "mortality at 5000 µg/mL", "setting": "[24]", "result": 100, "unit": "%"}, {"measurement": "mortality at 5000 µg/mL", "setting": "[25]", "result": 40, "unit": "%"}, {"measurement": "mortality at 5000 µg/mL", "setting": "[26]", "result": 40, "unit": "%"}, {"measurement": "Activity", "setting": "[27]", "result": "Active"}, {"measurement": "mortality at 5000 µg/mL", "setting": "[28]", "result": 100, "unit": "%"}, {"measurement": "Activity", "setting": "[29]", "result": "Active"}, {"measurement": "mortality at 5000 µg/mL", "setting": "[30]", "result": 100, "unit": "%"}, {"measurement": "mortality at 350 µg/mL", "setting": "[31]", "result": 22.2, "unit": "%"}, {"measurement": "mortality at 350 µg/mL", "setting": "[32]", "result": 10.5, "unit": "%"}]}]}
